Tests used:
Assay in all cases: relative viability (nuclei count vs DMSO), 5 days (fraction); higher = more cells survive
Decitabine + Palbociclib = compound: Nc1ncn([C@H]2C[C@H](O)[C@@H](CO)O2)c(=O)n1 [Decitabine] + CC(=O)c1c(C)c2cnc(Nc3ccc(N4CCNCC4)cn3)nc2n(C2CCCC2)c1=O [Palbociclib] (partner 0.5 µM)
Outline: (§1)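 Relative viability was taken as the ratio of nuclei in treated wells to nuclei in vehicle wells. Lung cancer cell lines in 1536-well plates received compounds by pin tool one day after seeding, either one drug alone or a fixed anchor-drug dose plus five library-drug doses (not always all listed) in √10 steps. Nuclei were counted on 4× images after 5 days of treatment, and values are medians of duplicate plates.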

Halofuginone + OSI-027 = compound: O=C(C[C@H]1NCCC[C@@H]1O)Cn1cnc2cc(Br)c(Cl)cc2c1=O (racemic) [Halofuginone] + COc1cccc2cc(-c3nc([C@H]4CC[C@H](C(=O)O)CC4)n4ncnc(N)c34)[nH]c12 [OSI-027] (partner 0.5 µM)
Outline: as §1

Decitabine + Navitoclax = compound: Nc1ncn([C@H]2C[C@H](O)[C@@H](CO)O2)c(=O)n1 [Decitabine] + CC1(C)CCC(c2ccc(Cl)cc2)=C(CN2CCN(c3ccc(C(=O)NS(=O)(=O)c4ccc(N[C@H](CCN5CCOCC5)CSc5ccccc5)c(S(=O)(=O)C(F)(F)F)c4)cc3)CC2)C1 [Navitoclax] (partner 0.5 µM)
Outline: as §1

Cediranib + Dasatinib = compound: COc1cc2c(Oc3ccc4[nH]c(C)cc4c3F)ncnc2cc1OCCCN1CCCC1 [Cediranib] + Cc1nc(Nc2ncc(C(=O)Nc3c(C)cccc3Cl)s2)cc(N2CCN(CCO)CC2)n1 [Dasatinib] (partner 0.075 µM)
Outline: as §1

## UMC-11
Decitabine + Palbociclib; first compound 0.04 µM
  relative viability: 0.344
Decitabine + Palbociclib; first compound 0.1265 µM
  relative viability: 0.276
Decitabine + Palbociclib; first compound 0.4 µM
  relative viability: 0.313
Decitabine + Palbociclib; first compound 1.265 µM
  relative viability: 0.283
Decitabine + Palbociclib; first compound 4 µM
  relative viability: 0.285
Halofuginone + OSI-027; first compound 0.001 µM
  relative viability: 0.44
Halofuginone + OSI-027; first compound 0.003162 µM
  relative viability: 0.461
Halofuginone + OSI-027; first compound 0.01 µM
  relative viability: 0.467
Halofuginone + OSI-027; first compound 0.03162 µM
  relative viability: 0.46
Halofuginone + OSI-027; first compound 0.1 µM
  relative viability: 0.368
Decitabine + Navitoclax; first compound 0.04 µM
  relative viability: 0.316
Decitabine + Navitoclax; first compound 0.1265 µM
  relative viability: 0.29
Decitabine + Navitoclax; first compound 0.4 µM
  relative viability: 0.215
Decitabine + Navitoclax; first compound 1.265 µM
  relative viability: 0.162
Decitabine + Navitoclax; first compound 4 µM
  relative viability: 0.145
Cediranib + Dasatinib; first compound 0.04 µM
  relative viability: 0.5
Cediranib + Dasatinib; first compound 0.4 µM
  relative viability: 0.426
Cediranib + Dasatinib; first compound 4 µM
  relative viability: 0.539

— the supplement of paper PMC10307832
